GI50 and TGI data for 19 molecules are collected here from PubChem BioAssay (NCI).

Among the test systems are CCRF-CEM leukemia; COLO 205 colon; LOX IMVI melanoma; NCI-H522 lung; SK-MEL-5 melanoma; SK-OV-3 ovarian; SR leukemia; T-47D breast; TK-10 renal; UO-31 renal.
Assay in all cases: NCI anticancer screen, dose series, 48 h

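Five compound concentrations were applied to cells in 96-well plates for 48 hours; endpoints were derived by simple linear interpolation of the resulting dose-response curve. The concentration for 50% growth inhibition is given as GI50. TGI is the concentration that stops growth completely.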

With `CN(C)CCCNC(=O)c1cc2[nH]c3c(cnc4ccc([N+](=O)[O-])cc43)c(=O)c2n1C`, the GI50 with CCRF-CEM leukemia is 14.5 µM; with COLO 205 colon it was 16.5 µM; with LOX IMVI melanoma, 14.4 µM; in the assay with NCI-H522 lung it was 17.4 µM; in the assay on SK-MEL-5 melanoma, 17.1 µM; in the assay on SK-OV-3 ovarian, 17.3 µM. Further, the GI50 with SR leukemia is 14.5 µM; with T-47D breast, 19.3 µM; with TK-10 renal, 14.3 µM; with UO-31 renal, 17 µM. In addition, the TGI in the assay on CCRF-CEM leukemia was determined as 30.6 µM; with COLO 205 colon, 30.1 µM; in the assay with LOX IMVI melanoma, 27.5 µM; with NCI-H522 lung, 32.1 µM; in the assay with SK-MEL-5 melanoma it was 31.1 µM; with SK-OV-3 ovarian, 37.9 µM. Further, the TGI worked out at 43.3 µM with SR leukemia, 39.2 µM with T-47D breast, 28.2 µM with TK-10 renal and 32.1 µM in the assay with UO-31 renal.
For `CCCn1c2ccccc2c2ccc3c(c21)C(=O)C=CC3=O`, the TGI was 0.47 µM with CCRF-CEM leukemia; 5.17 µM in the assay on COLO 205 colon; more than 10 µM in the assay on LOX IMVI melanoma; 3.54 µM in the assay with NCI-H522 lung; more than 10 µM with SK-MEL-5 melanoma; more than 10 µM in the assay with SK-OV-3 ovarian. For the same molecule, the TGI in the assay on SR leukemia was 0.883 µM; in the assay with T-47D breast, 5.44 µM; with TK-10 renal, 3.76 µM; with UO-31 renal, more than 10 µM.
For `O=C1C2CC=CCC2C(=O)N1n1c(Cc2ccc(Cl)cc2)n[nH]c1=O` (configuration not stated), the TGI in the assay with CCRF-CEM leukemia, in the assay on COLO 205 colon, in the assay on LOX IMVI melanoma, in the assay with NCI-H522 lung, in the assay with SK-MEL-5 melanoma and in the assay with SK-OV-3 ovarian was more than 100 µM in each case. Moreover, the TGI in the assay on SR leukemia, in the assay with T-47D breast, in the assay with TK-10 renal and with UO-31 renal was more than 100 µM in each case.
As for `Nc1ccc(-c2nc3cc(F)ccc3s2)cc1Cl`, the TGI is more than 100 µM in the assay on CCRF-CEM leukemia; more than 100 µM with COLO 205 colon; more than 100 µM in the assay on LOX IMVI melanoma; more than 100 µM in the assay with NCI-H522 lung; more than 100 µM in the assay on SK-MEL-5 melanoma; 52.6 µM in the assay with SK-OV-3 ovarian. Moreover, the TGI is 9.4 µM with SR leukemia, more than 70.1 µM with T-47D breast, 0.176 µM in the assay with TK-10 renal and more than 100 µM in the assay with UO-31 renal.
`Cc1c([N+](=O)[O-])ccc2c(NCCCN(C)C)ccnc12`: the TGI in the assay on CCRF-CEM leukemia is more than 100 µM; in the assay on COLO 205 colon it was 24.7 µM; in the assay with LOX IMVI melanoma it was 30.9 µM; in the assay with NCI-H522 lung it was 31.9 µM; in the assay with SK-MEL-5 melanoma, 29.6 µM; with SK-OV-3 ovarian, more than 100 µM. Also, the TGI with SR leukemia was more than 100 µM; with T-47D breast, 76.5 µM; in the assay on TK-10 renal, 80.6 µM; in the assay with UO-31 renal, 30.5 µM.
On to `COC(=O)CC(C#N)(OP1(=O)OC(c2ccccc2)C(C)N1C)c1ccccc1` (configuration not stated), for which the TGI in the assay with CCRF-CEM leukemia is 38.7 µM; in the assay on COLO 205 colon, more than 100 µM; in the assay on LOX IMVI melanoma it was 53.4 µM; with NCI-H522 lung, more than 100 µM; with SK-MEL-5 melanoma it was more than 100 µM; in the assay on SK-OV-3 ovarian, more than 100 µM. The TGI in the assay with SR leukemia is 74.8 µM; in the assay with T-47D breast, 96.7 µM; in the assay with TK-10 renal, more than 100 µM; with UO-31 renal it was 27.2 µM.
Consider `C=C1C(=O)C[C@H]2C(=C)C(=O)O[C@@H]2C2C1CC[C@@]2(C)O` (some centres not stated), for which the TGI in the assay with CCRF-CEM leukemia is more than 100 µM; in the assay on COLO 205 colon, 54.8 µM; with LOX IMVI melanoma, 68.8 µM; in the assay on NCI-H522 lung it was 41.4 µM; in the assay with SK-MEL-5 melanoma it was more than 100 µM; in the assay with SK-OV-3 ovarian, more than 100 µM. For the same molecule, the TGI with SR leukemia is more than 100 µM; in the assay on T-47D breast, 68.8 µM; in the assay with TK-10 renal it was 41.4 µM; in the assay with UO-31 renal it was 74.2 µM.
Consider `Cc1cc2c(cc1Cl)SC(NS(=O)(=O)c1ccc(Cl)cc1)=NS2(=O)=O`, for which the TGI was more than 100 µM with CCRF-CEM leukemia; more than 100 µM with COLO 205 colon; more than 100 µM in the assay on LOX IMVI melanoma; 84.2 µM in the assay with NCI-H522 lung; more than 100 µM with SK-MEL-5 melanoma; more than 100 µM in the assay on SK-OV-3 ovarian. Moreover, the TGI in the assay on SR leukemia was 30.4 µM; in the assay with T-47D breast it was more than 100 µM; in the assay on TK-10 renal, 69.5 µM; in the assay with UO-31 renal, more than 100 µM.
For the molecule `CC(C)(C)NC(NC(C)(C)C)=C(/C=C(/Cl)[N+](=O)[O-])[N+](=O)[O-]`, the TGI in the assay with CCRF-CEM leukemia is more than 100 µM; with COLO 205 colon, 60.3 µM; in the assay with LOX IMVI melanoma it was more than 100 µM; in the assay on NCI-H522 lung it was more than 100 µM; in the assay with SK-MEL-5 melanoma, more than 100 µM; with SK-OV-3 ovarian it was more than 100 µM. Further, the TGI in the assay with SR leukemia, with T-47D breast, in the assay on TK-10 renal and in the assay with UO-31 renal was more than 100 µM in each case.
Consider `O=C(O)CC(CC(=O)O)C(=O)O`, for which the TGI with CCRF-CEM leukemia, with COLO 205 colon, in the assay on LOX IMVI melanoma, with NCI-H522 lung, in the assay on SK-MEL-5 melanoma and with SK-OV-3 ovarian was more than 100 µM in each case. In addition, the TGI in the assay with SR leukemia, in the assay with T-47D breast, in the assay on TK-10 renal and in the assay with UO-31 renal was more than 100 µM in each case.
In the case of `Oc1cn(-c2ccc(Cl)cc2)nc1-c1nnc(-c2ccccc2)o1`, the GI50 is 2.46 µM in the assay with CCRF-CEM leukemia and 1.63 µM in the assay with LOX IMVI melanoma. For the same molecule, the TGI in the assay on CCRF-CEM leukemia is more than 100 µM; in the assay with COLO 205 colon it was more than 49.8 µM; in the assay with LOX IMVI melanoma it was 20.5 µM; in the assay with NCI-H522 lung, 22.9 µM; in the assay on SK-MEL-5 melanoma, 5.13 µM; in the assay on SK-OV-3 ovarian, more than 74 µM. In addition, the TGI in the assay on SR leukemia is 20.8 µM; in the assay on T-47D breast, more than 92.7 µM; in the assay on TK-10 renal, 3.76 µM; in the assay with UO-31 renal, 31.9 µM.
As for `CC(C)CC1C(=O)NCCC(NC(=O)C(Cc2ccc(OC(C)(C)C)cc2)NC(=O)OC(C)(C)C)C(=O)NC(Cc2ccccc2)C(=O)NC(Cc2ccccc2)NC1=O` (configuration not stated), the TGI in the assay on CCRF-CEM leukemia is 55 µM; with COLO 205 colon, 11.7 µM; in the assay with LOX IMVI melanoma, 19.3 µM; with NCI-H522 lung it was 35.4 µM; in the assay with SK-MEL-5 melanoma it was 85.9 µM; in the assay on SK-OV-3 ovarian, 45.9 µM. The TGI was 72.1 µM with SR leukemia, 22.2 µM with T-47D breast, 33.8 µM in the assay with TK-10 renal and more than 100 µM in the assay with UO-31 renal.
For the molecule `COC(=O)CCC1=CCC2(SC)C(=O)Nc3cccc1c32` (configuration not stated), the TGI with CCRF-CEM leukemia, in the assay on COLO 205 colon, in the assay with LOX IMVI melanoma, with NCI-H522 lung, in the assay with SK-MEL-5 melanoma and in the assay on SK-OV-3 ovarian was more than 100 µM each time. For the same molecule, the TGI in the assay on SR leukemia, in the assay with T-47D breast, with TK-10 renal and in the assay with UO-31 renal was more than 100 µM each time.
Take `COc1cc(/C=C2\C[C@H]3[C@@H]4CCc5cc(O)ccc5[C@H]4CC[C@]3(C)C2=O)cc(OC)c1OC`: the TGI came out at 27.4 µM with CCRF-CEM leukemia; 61.5 µM with COLO 205 colon; 30.7 µM in the assay on LOX IMVI melanoma; 3.95 µM with NCI-H522 lung; 38.4 µM in the assay on SK-MEL-5 melanoma; 48.3 µM in the assay on SK-OV-3 ovarian. Besides, the TGI in the assay on SR leukemia came to 10.7 µM; in the assay on T-47D breast it was 38.5 µM; in the assay on TK-10 renal, 25.1 µM; with UO-31 renal, 29.4 µM.
Turning to `CN(Cc1cnc2nc(N)nc(N)c2n1)c1ccc(C(=O)NC(CCC(=O)NCCC(P(=O)(O)O)P(=O)(O)O)C(=O)O)cc1` (configuration not stated), the TGI with CCRF-CEM leukemia, in the assay with COLO 205 colon, with LOX IMVI melanoma, in the assay on NCI-H522 lung, in the assay with SK-MEL-5 melanoma and with SK-OV-3 ovarian was more than 100 µM in each case. The TGI in the assay with SR leukemia, with T-47D breast, with TK-10 renal and in the assay on UO-31 renal was more than 100 µM throughout.
Consider `O=c1cnn(C2OC(C(O)CO)C(O)C2O)c(=O)[nH]1` (configuration not stated), for which the TGI with CCRF-CEM leukemia, in the assay on COLO 205 colon, with LOX IMVI melanoma, in the assay with NCI-H522 lung, in the assay on SK-MEL-5 melanoma and with SK-OV-3 ovarian was more than 100 µM each time. Further, the TGI in the assay on SR leukemia, in the assay on T-47D breast, with TK-10 renal and in the assay on UO-31 renal was more than 100 µM in each case.
`COc1cccc2c1OC(c1ccc(Cl)cc1)C([N+](=O)[O-])=C2` (configuration not stated): the TGI with CCRF-CEM leukemia came to 4 µM; in the assay on COLO 205 colon, 5.74 µM; with LOX IMVI melanoma it was 2.71 µM; in the assay on NCI-H522 lung it was 3.23 µM; in the assay with SK-MEL-5 melanoma, 2.95 µM; with SK-OV-3 ovarian, 13.6 µM. The TGI with SR leukemia is more than 100 µM; in the assay with T-47D breast, 9.13 µM; in the assay with TK-10 renal, 16 µM; with UO-31 renal it was 3.44 µM.
For `N=C1/C(=C/c2ccc(F)cc2)C(=O)N=C2SC=NN12`, the TGI with CCRF-CEM leukemia, with COLO 205 colon, in the assay with LOX IMVI melanoma, in the assay on NCI-H522 lung, in the assay with SK-MEL-5 melanoma and with SK-OV-3 ovarian was more than 100 µM each time. For the same molecule, the TGI in the assay on SR leukemia, in the assay with T-47D breast, in the assay with TK-10 renal and with UO-31 renal was more than 100 µM each time.
For the molecule `C=C(CCC/C(C)=C/C=C/[C@]1(C)CCCc2ccoc21)CC(=O)O`, the TGI in the assay with CCRF-CEM leukemia, in the assay on COLO 205 colon, with LOX IMVI melanoma, in the assay on NCI-H522 lung, in the assay on SK-MEL-5 melanoma and with SK-OV-3 ovarian was more than 100 µM each time. For the same molecule, the TGI with SR leukemia, in the assay on T-47D breast, in the assay with TK-10 renal and in the assay on UO-31 renal was more than 100 µM throughout.
